From PubChem BioAssay AID1845198 (Molecular Pharmacology Branch, DTP, NCI, 2023)

Test system: 425362-245-T-J1 tumor spheroids, viability % test/control
Assay: Anticancer human tumor 425362-245-T-J1 patient-derived melanoma cell line growth inhibition
Settings: spheroids with HUVEC and MSC; for IC50: curve of first compound; for viability, T/C: stronger effect = lower value
How it was run: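 Complex spheroids of malignant cells with endothelial cells and mesenchymal stem cells; agents alone or combined, from near clinical Cmax (or 10 microM if unknown) down in half-log steps, 0.25% DMSO final.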

[1] = second compound 0.003 µM, first compound 0.0316 µM
[2] = second compound 0.003 µM, first compound 0.1 µM
[3] = second compound 0.003 µM, first compound 0.316 µM
[4] = second compound 0.003 µM, first compound 1 µM
[5] = second compound 0.003 µM, first compound 3.16 µM
[6] = second compound 0.003 µM, first compound 10 µM
[7] = second compound 0.00949 µM, first compound 0.0316 µM
[8] = second compound 0.00949 µM, first compound 0.1 µM
[9] = second compound 0.00949 µM, first compound 0.316 µM
[10] = second compound 0.00949 µM, first compound 1 µM
[11] = second compound 0.00949 µM, first compound 3.16 µM
[12] = second compound 0.00949 µM, first compound 10 µM
[13] = second compound 0.03 µM, first compound 0.0316 µM
[14] = second compound 0.03 µM, first compound 0.1 µM
[15] = second compound 0.03 µM, first compound 0.316 µM
[16] = second compound 0.03 µM, first compound 1 µM
[17] = second compound 0.03 µM, first compound 3.16 µM
[18] = second compound 0.03 µM, first compound 10 µM
[19] = second compound 0.0949 µM, first compound 0.0316 µM
[20] = second compound 0.0949 µM, first compound 0.1 µM
[21] = second compound 0.0949 µM, first compound 0.316 µM
[22] = second compound 0.0949 µM, first compound 1 µM
[23] = second compound 0.0949 µM, first compound 3.16 µM
[24] = second compound 0.0949 µM, first compound 10 µM
[25] = second compound 0.3 µM, first compound 0.0316 µM
[26] = second compound 0.3 µM, first compound 0.1 µM
[27] = second compound 0.3 µM, first compound 0.316 µM
[28] = second compound 0.3 µM, first compound 1 µM
[29] = second compound 0.3 µM, first compound 3.16 µM
[30] = second compound 0.3 µM, first compound 10 µM
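Note: spheroids exposed to agents for 7 days.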
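Throughout, for viability, T/C: 100% = DMSO vehicle control viability.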

SMILES | IC50 (second compound 0.003 µM) [µM] | IC50 (second compound 0.00949 µM) [µM] | IC50 (second compound 0.03 µM) [µM] | IC50 (second compound 0.0949 µM) [µM] | IC50 (second compound 0.3 µM) [µM] | viability, T/C [1] [%] | viability, T/C [2] [%] | viability, T/C [3] [%] | viability, T/C [4] [%] | viability, T/C [5] [%] | viability, T/C [6] [%] | viability, T/C [7] [%] | viability, T/C [8] [%] | viability, T/C [9] [%] | viability, T/C [10] [%] | viability, T/C [11] [%] | viability, T/C [12] [%] | viability, T/C [13] [%] | viability, T/C [14] [%] | viability, T/C [15] [%] | other results
CC(C)n1c(=O)n(C)c2cnc3cc(F)c(-c4ccc(OCCCN5CCCCC5)nc4)cc3c21 + CC[C@@]1(O)C(=O)OCc2c1cc1n(c2=O)Cc2cc3c(CN(C)C)c(O)ccc3nc2-1 | < 0.0316 | < 0.0316 | < 0.0316 | < 0.0316 | < 0.0316 | 14.6 | 10.4 | 7.7 | 6.29 | 8.79 | 4.08 | 6.58 | 4.04 | 3.89 | 3.22 | 3.36 | 2.89 | 5.67 | 4.26 | 4.37 | viability, T/C [16]: 4.1%; viability, T/C [17]: 5.65%; viability, T/C [18]: 2.47%; viability, T/C [19]: 7.71%; viability, T/C [20]: 4.71%; viability, T/C [21]: 4.3%; viability, T/C [22]: 3.67%; viability, T/C [23]: 6.89%; viability, T/C [24]: 2.28%; viability, T/C [25]: 2.08%; viability, T/C [26]: 2.15%; viability, T/C [27]: 1.84%; viability, T/C [28]: 1.73%; viability, T/C [29]: 1.54%; viability, T/C [30]: 1.56%
CC1COCCN1c1cc(-c2ccnn2C)c2ccnc(-c3ccn[nH]3)c2n1 (stereo not given) + CC[C@@]1(O)C(=O)OCc2c1cc1n(c2=O)Cc2cc3c(CN(C)C)c(O)ccc3nc2-1 | < 0.0316 | < 0.0316 | < 0.0316 | < 0.0316 | < 0.0316 | 37.4 | 15.3 | 6.14 | 6.78 | 6.36 | 6.21 | 14.2 | 6.19 | 4.31 | 5.51 | 5.57 | 5.81 | 4.2 | 2.9 | 3.2 | viability, T/C [16]: 4.33%; viability, T/C [17]: 5.76%; viability, T/C [18]: 6.29%; viability, T/C [19]: 2.84%; viability, T/C [20]: 1.97%; viability, T/C [21]: 2.32%; viability, T/C [22]: 4.06%; viability, T/C [23]: 4.81%; viability, T/C [24]: 4.72%; viability, T/C [25]: 1.36%; viability, T/C [26]: 1.31%; viability, T/C [27]: 1.46%; viability, T/C [28]: 1.77%; viability, T/C [29]: 2.51%; viability, T/C [30]: 3.29%
COc1cc(C)[nH]c(=O)c1CN1CCc2c(Cl)cc(C(OC)C3COC3)c(Cl)c2C1=O (stereo not given) + CC[C@@]1(O)C(=O)OCc2c1cc1n(c2=O)Cc2cc3c(CN(C)C)c(O)ccc3nc2-1 | > 10 | > 10 | < 0.0316 | < 0.0316 | < 0.0316 | 98.7 | 102 | 100 | 94.3 | 78.6 | 79.5 | 91 | 89.6 | 85.6 | 80.6 | 75.8 | 59.5 | 53.7 | 37.2 | 46.5 | viability, T/C [16]: 47.5%; viability, T/C [17]: 29.9%; viability, T/C [18]: 21.6%; viability, T/C [19]: 7.06%; viability, T/C [20]: 7.25%; viability, T/C [21]: 6.93%; viability, T/C [22]: 7.04%; viability, T/C [23]: 5.23%; viability, T/C [24]: 3.44%; viability, T/C [25]: 1.81%; viability, T/C [26]: 2.03%; viability, T/C [27]: 1.77%; viability, T/C [28]: 1.79%; viability, T/C [29]: 1.76%; viability, T/C [30]: 1.76%
COc1ccc([C@@H](O)c2cc(-c3ncnc4cc(N5CCOCC5)ccc34)c(F)cc2Cl)nn1 + CC[C@@]1(O)C(=O)OCc2c1cc1n(c2=O)Cc2cc3c(CN(C)C)c(O)ccc3nc2-1 | 1.69 | 1.11 | < 0.0316 | < 0.0316 | < 0.0316 | 103 | 103 | 72.1 | 60.2 | 40.6 | 17 | 89.7 | 78.7 | 72.4 | 47.9 | 35.1 | 14.9 | 45.5 | 45.6 | 37.8 | viability, T/C [16]: 24.5%; viability, T/C [17]: 15.1%; viability, T/C [18]: 11.2%; viability, T/C [19]: 8.69%; viability, T/C [20]: 6.08%; viability, T/C [21]: 5.64%; viability, T/C [22]: 5.51%; viability, T/C [23]: 3.85%; viability, T/C [24]: 4.39%; viability, T/C [25]: 1.88%; viability, T/C [26]: 1.38%; viability, T/C [27]: 1.37%; viability, T/C [28]: 1.12%; viability, T/C [29]: 0.65%; viability, T/C [30]: 0.57%
[2H]c1nc(C)nc([2H])c1-c1cc(NC[C@@H](C)c2cccc3c(C(=O)NC)ccnc23)ncn1 + CC[C@@]1(O)C(=O)OCc2c1cc1n(c2=O)Cc2cc3c(CN(C)C)c(O)ccc3nc2-1 | 3.45 | 3.59 | < 0.0316 | < 0.0316 | < 0.0316 | 93.9 | 83.5 | 76.7 | 74.5 | 47.7 | 31.4 | 76.2 | 60.4 | 72.9 | 63.8 | 53 | 25.5 | 39.5 | 32.2 | 36.2 | viability, T/C [16]: 28.3%; viability, T/C [17]: 20.5%; viability, T/C [18]: 9.7%; viability, T/C [19]: 6.85%; viability, T/C [20]: 5.79%; viability, T/C [21]: 4.9%; viability, T/C [22]: 6.11%; viability, T/C [23]: 2.84%; viability, T/C [24]: 3.55%; viability, T/C [25]: 1.6%; viability, T/C [26]: 1.7%; viability, T/C [27]: 1.43%; viability, T/C [28]: 1.44%; viability, T/C [29]: 1.47%; viability, T/C [30]: 1.38%
